In ChEMBL document CHEMBL1158411, “Second generation of BACE-1 inhibitors part 3: Towards non hydroxyethylamine transition state mimetics” (Bioorg Med Chem Lett, 2009):

Tests used:
[1] = target: T1, Beta-secretase 2 (Homo sapiens, UniProt Q9Y5Z0); assay: Inhibition of BACE2
T1 sequence (Q9Y5Z0 whole entry): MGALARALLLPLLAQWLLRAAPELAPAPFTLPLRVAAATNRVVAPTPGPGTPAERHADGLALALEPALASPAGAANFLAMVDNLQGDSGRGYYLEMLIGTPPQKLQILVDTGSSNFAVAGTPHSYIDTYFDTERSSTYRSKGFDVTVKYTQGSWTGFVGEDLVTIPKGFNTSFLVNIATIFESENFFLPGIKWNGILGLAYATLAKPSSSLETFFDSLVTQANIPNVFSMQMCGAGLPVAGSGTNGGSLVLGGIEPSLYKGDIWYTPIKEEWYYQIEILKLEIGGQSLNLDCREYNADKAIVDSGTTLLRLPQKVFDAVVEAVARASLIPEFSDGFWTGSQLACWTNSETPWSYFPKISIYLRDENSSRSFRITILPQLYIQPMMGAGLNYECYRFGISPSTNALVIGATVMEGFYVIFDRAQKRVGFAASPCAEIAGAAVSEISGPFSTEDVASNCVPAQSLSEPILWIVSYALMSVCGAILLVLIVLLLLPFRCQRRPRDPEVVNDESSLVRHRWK

[2] = target: Cathepsin D (Homo sapiens, UniProt P07339); assay: Inhibition of cathepsin-D
Chain of Cathepsin D (P07339 65-162 limits assumed): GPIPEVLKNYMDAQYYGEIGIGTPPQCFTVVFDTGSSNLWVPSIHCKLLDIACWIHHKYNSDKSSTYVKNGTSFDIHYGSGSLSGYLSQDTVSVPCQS
Chain of Cathepsin D (P07339 169-412 limits assumed): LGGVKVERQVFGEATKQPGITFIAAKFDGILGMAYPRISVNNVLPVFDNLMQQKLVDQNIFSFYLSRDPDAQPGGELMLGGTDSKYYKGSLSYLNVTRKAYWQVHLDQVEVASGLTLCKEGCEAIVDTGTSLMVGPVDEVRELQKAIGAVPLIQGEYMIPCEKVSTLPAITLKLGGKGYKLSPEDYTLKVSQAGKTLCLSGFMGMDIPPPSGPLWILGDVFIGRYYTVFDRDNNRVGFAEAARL

[3] = target: T2, Beta-secretase 1 (Homo sapiens, UniProt P56817); assay: Inhibition of BACE1
T2 sequence (P56817 whole entry): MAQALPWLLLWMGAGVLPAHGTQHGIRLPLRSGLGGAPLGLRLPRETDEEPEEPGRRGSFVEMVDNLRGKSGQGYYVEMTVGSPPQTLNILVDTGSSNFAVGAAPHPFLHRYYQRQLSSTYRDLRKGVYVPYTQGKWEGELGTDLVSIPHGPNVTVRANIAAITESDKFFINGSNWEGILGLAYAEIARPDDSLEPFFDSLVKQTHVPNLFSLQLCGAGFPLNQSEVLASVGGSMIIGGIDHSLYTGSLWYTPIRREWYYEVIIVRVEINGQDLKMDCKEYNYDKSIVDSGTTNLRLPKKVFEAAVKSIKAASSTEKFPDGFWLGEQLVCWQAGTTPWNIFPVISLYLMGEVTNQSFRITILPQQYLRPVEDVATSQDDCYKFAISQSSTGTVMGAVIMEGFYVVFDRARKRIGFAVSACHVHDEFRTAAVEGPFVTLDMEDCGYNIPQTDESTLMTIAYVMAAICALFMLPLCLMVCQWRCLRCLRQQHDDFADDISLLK

[4] = target: T2, Beta-secretase 1; assay: Inhibition of BACE1 in human SHSY5Y cells expressing wild type APP assessed as inhibition of intracellular amyloid beta-40 secretion; assay type: cell-based, SH-SY5Y
[5] = Lipophilicity, log D at pH 7.4; details: buffer
[6] = Half life in rat at 1 mg/kg/hr, iv; assay type: ADME, organism-based; design: route intravenous; details: in vivo
[7] = Blood clearance in mdr1a/b knockout mouse by HPLC analysis; assay type: ADME, organism-based
[8] = Bioavailability in rat; assay type: ADME, organism-based; details: in vivo
[9] = Volume of distribution in rat at 1 mg/kg/hr, iv; assay type: ADME, organism-based; design: route intravenous; details: in vivo
[10] = Cmax in dog at 10 mg/kg; assay type: ADME, organism-based, Canis lupus familiaris; design: dose 10 mg/kg; details: in vivo
[11] = Bioavailability in dog; assay type: ADME, organism-based, Canis lupus familiaris; details: in vivo
[12] = Half life in dog at 1 mg/kg/hr, iv; assay type: ADME, organism-based, Canis lupus familiaris; design: route intravenous; details: in vivo
[13] = Volume of distribution in dog at 1 mg/kg/hr, iv; assay type: ADME, organism-based, Canis lupus familiaris; design: route intravenous; details: in vivo
[14] = test system: Brain; assay: Steady sate drug level in brain of wild type mouse expressing mdr1a/b by HPLC analysis; assay type: ADME, tissue-based; details: in vivo
[15] = Ratio of steady sate drug level in brain to blood of wild type mouse expressing mdr1a/b; assay type: ADME, tissue-based
[16] = Blood clearance in rat at 1 mg/kg/hr, iv; assay type: ADME, organism-based; design: route intravenous
[17] = test system: Brain; assay: Steady sate drug level in brain of mdr1a/b knockout mouse by HPLC analysis; assay type: ADME, tissue-based; details: in vivo, read-out: Css
[18] = Blood clearance in dog at 1 mg/kg/hr, iv; assay type: ADME, organism-based, Canis lupus familiaris; design: route intravenous
[19] = test system: Blood; assay: Steady sate drug level in blood of mdr1a/b knockout mouse by HPLC analysis; assay type: ADME, tissue-based; details: read-out: Css
[20] = Blood clearance in wild type mouse expressing mdr1a/b by HPLC analysis; assay type: ADME, organism-based
[21] = Cmax in rat at 10 mg/kg; assay type: ADME, organism-based; design: dose 10 mg/kg; details: in vivo
[22] = Ratio of steady sate drug level in brain to blood of mdr1a/b knockout mouse; assay type: ADME, tissue-based
[23] = test system: Blood; assay: Steady sate drug level in blood of wild type mouse expressing mdr1a/b by HPLC analysis; assay type: ADME, tissue-based

IC50 [1] [nM] | IC50 [2] [nM] | IC50 [3] [nM] | IC50 [4] [nM] | logD [5] | Structure (SMILES) | further results
210 | 60 | 9 | 90 | 1.31 | CCc1cn2c3c(cc(C(=O)N[C@@H](Cc4ccccc4)[C@H](O)CNC4CCOCC4)cc13)N(C)S(=O)(=O)CC2 | –
28 | 890 | 7 | 8 | 2.8 | CCc1cn2c3c(cc(C(=O)N[C@@H](Cc4ccccc4)[C@H](O)CNCCC(F)(F)F)cc13)N(C)S(=O)(=O)CC2 | –
– | – | 50 | 209 | – | CCc1cn2c3c(cc(C(=O)N[C@@H](Cc4ccccc4)[C@H](O)CNCCF)cc13)N(C)S(=O)(=O)CC2 | –
3100 | 75500 | 73 | 118 | – | C#CCNC[C@@H](O)[C@H](Cc1ccccc1)NC(=O)c1cc2c3c(c1)c(CC)cn3CCS(=O)(=O)N2C | –
– | – | 79 | 2110 | – | CCn1cc2c3c(cc(C(=O)N[C@@H](Cc4ccccc4)[C@H](O)CNCC(F)(F)F)cc31)N(C)S(=O)(=O)CC2 | –
430 | 5430 | 22 | 144 | 1.52 | CCc1cn2c3c(cc(C(=O)N[C@@H](Cc4ccccc4)[C@H](O)CN[C@H](C)CC)cc13)N(C)S(=O)(=O)CC2 | –
– | – | 11 | – | 2.17 | CCc1cn2c3c(cc(C(=O)N[C@@H](Cc4ccccc4)[C@H](O)CNC4CC4)cc13)N(C)S(=O)(=O)CC2 | clearance [7]: 62 mL/min/kg; bioavailability [8]: 17%; Css [14]: 61 nM; Kp [15]: 0.13; concentration [17]: 989 nM; concentration [19]: 397 nM; clearance [20]: 72 mL/min/kg; Kp [22]: 2.41; Css [23]: 490 nM
1140 | 36300 | 48 | 262 | – | CCNC[C@@H](O)[C@H](Cc1ccccc1)NC(=O)c1cc2c3c(c1)c(CC)cn3CCS(=O)(=O)N2C | –

Further lines, the compound ahead of its results:

Structure (SMILES) | IC50 [1] [nM] | IC50 [2] [nM] | IC50 [3] [nM] | IC50 [4] [nM] | logD [5] | further results
CCn1cc2c3c(cc(C(=O)N[C@@H](Cc4ccccc4)[C@H](O)CNCCC(F)(F)F)cc31)N(C)S(=O)(=O)CC2 | 75 | 570 | – | – | 2.59 | half-life [6]: 3.3 h; clearance [7]: 94 mL/min/kg; bioavailability [8]: 13%; Vd [9]: 11 L/kg; Cmax [10]: 3590 nM; bioavailability [11]: 52%; half-life [12]: 6.8 h; Vd [13]: 4.8 L/kg; Css [14]: 40 nM; Kp [15]: 0.1; clearance [16]: 57 mL/min/kg; concentration [17]: 335 nM; clearance [18]: 14 mL/min/kg; concentration [19]: 339 nM; clearance [20]: 85 mL/min/kg; Cmax [21]: 88 nM; Kp [22]: 0.99; Css [23]: 381 nM
CCn1cc2c3c(cc(C(=O)N[C@@H](Cc4ccccc4)[C@H](O)CNCC(F)F)cc31)N(C)S(=O)(=O)CC2 | – | – | 20 | 51 | – | –
CC[C@@H](C)NC[C@@H](O)[C@H](Cc1ccccc1)NC(=O)c1cc2c3c(cn(CC)c3c1)CCS(=O)(=O)N2C | 420 | 1190 | 10 | 64 | – | –
C#CCNC[C@@H](O)[C@H](Cc1ccccc1)NC(=O)c1cc2c3c(c1)c(CC)cn3CCS(=O)(=O)O2 | 3200 | 15100 | 360 | – | – | –
CCn1cc2c3c(cc(C(=O)N[C@@H](Cc4ccccc4)[C@H](O)CNCC(F)(F)C(F)(F)F)cc31)N(C)S(=O)(=O)CC2 | – | – | 32 | 4430 | – | –
CCc1cn2c3c(cc(C(=O)N[C@@H](Cc4ccccc4)[C@H](O)CNCc4cccc(C(F)(F)F)c4)cc13)OS(=O)(=O)CC2 | 260 | 2160 | 8 | – | – | –
CCNC[C@@H](O)[C@H](Cc1ccccc1)NC(=O)c1cc2c3c(cn(CC)c3c1)CCS(=O)(=O)N2C | 2170 | 19500 | 23 | 73 | 0.07 | –
CCCNC[C@@H](O)[C@H](Cc1ccccc1)NC(=O)c1cc2c3c(cn(CC)c3c1)CCS(=O)(=O)N2C | – | – | 8 | 29 | – | –
CCn1cc2c3c(cc(C(=O)N[C@@H](Cc4ccccc4)C(=O)CNC4CCOCC4)cc31)N(C)S(=O)(=O)CC2 | – | – | – | 48 | – | –
CCn1cc2c3c(cc(C(=O)N[C@@H](Cc4ccccc4)[C@H](O)CNCCF)cc31)N(C)S(=O)(=O)CC2 | – | – | 40 | 245 | – | –
CCn1cc2c3c(cc(C(=O)N[C@@H](Cc4ccccc4)[C@H](O)CNC4CC4)cc31)N(C)S(=O)(=O)CC2 | 370 | 6790 | – | – | 1.79 | –
CCn1cc2c3c(cc(C(=O)N[C@@H](Cc4ccccc4)[C@H](O)CNC4CCOCC4)cc31)N(C)S(=O)(=O)CC2 | 590 | 2110 | 5 | 27 | 0.9 | –
CCc1cn2c3c(cc(C(=O)N[C@@H](Cc4ccccc4)[C@H](O)CNCC4CCOCC4)cc13)OS(=O)(=O)CC2 | 450 | 130 | 86 | – | – | –
CCn1cc2c3c(cc(C(=O)N[C@@H](Cc4ccccc4)[C@H](O)CNc4ccccc4)cc31)N(C)S(=O)(=O)CC2 | – | – | 5 | 739 | – | –
CCc1cn2c3c(cc(C(=O)N[C@@H](Cc4ccccc4)[C@H](O)CNC4CC4)cc13)OS(=O)(=O)CC2 | 1150 | 2970 | 250 | – | – | –
C#CCNC[C@@H](O)[C@H](Cc1ccccc1)NC(=O)c1cc2c3c(cn(CC)c3c1)CCS(=O)(=O)N2C | 1490 | 34600 | 11 | 26 | – | –
